In paper PMC7228129, “Evaluation of Developmental Toxicity, Developmental Neurotoxicity, and Tissue Dose in Zebrafish Exposed to GenX and Other PFAS” (Environmental Health Perspectives, 2020):
Entries after “also recorded” stand apart in the source; their conditions may differ.

Test system: zebrafish
Test: Developmental toxicity (DevTox) assay
Assay type: in vivo, Danio rerio
Conditions: for Developmental toxicity outcome / EC50: scored 6 dpf; for DevTox assay phenotype: Table 5 summary, this study (some rows also list literature); for EC50: Hill fit
Description: At 0 dpf, zebrafish embryos were bleached as previously described ([Tal et al. 2017]). A single embryo at the dome-to-epiboly stages ([Kimmel et al. 1995]) was placed into each individual well of a 96-well plate containing a 40-μm nylon mesh filter (Millipore, Catalog No. MANMN4010) with 400μL of 10% Hanks’ balanced salt solution (HBSS) per well. Filter inserts containing zebrafish embryos were transferred to 96-well culture trays (Millipore, Catalog No. MAMCS9610) containing 250μL of 10% HBSS ([Westerfield 2007]) and 1μL of 250× working solutions per well. A final concentration of 0.4% DMSO was used for all exposure groups and as a vehicle control. In the case of GenX Free Acid in Study 2 (Figure 1), DI water was used as a vehicle control. Daily, from 1–5 dpf, plates underwent 100% media changes to refresh chemical dosing solutions by blotting (Brandel; Catalog No. FPXLR-196) and transferring mesh inserts containing zebrafish to new bottom plates (Millipore; Catalog No. MAMCS9610). To minimize evaporation, plates were sealed (Biorad; Catalog No. MSA5001) and wrapped with parafilm. Plates were maintained on a 14 h:10 h light cycle at 26.0°C and scored daily for death, malformations, hatching, and swim bladder inflation. At 6 dpf, plates were evaluated by two independent observers and DevTox or DNT assays were performed or media and tissue were collected for analytical chemistry analyses as described below.
In Study 1 (Figure 1), zebrafish were exposed, as described in the “Chemical Exposures” section, to 0.04, 0.1, 0.4, 1.1, 3.1, 9.3, 27.2, or 80.0μM PFOS, PFOA, PFHxS, PFHxA, or ADONA, or 0.4% DMSO. Six 96-well plates were tested with a single chemical concentration included on each microtiter plate. Subsequently, as part of Study 1, zebrafish were exposed to 0.04, 0.1, 0.4, 1.1, 3.1, 9.3, 27.2, or 80.0μM PFESA1, or 0.4% DMSO. In Study 2, GenX Free Acid diluted in DI water was tested by exposing zebrafish to 0.04, 0.1, 0.4, 1.1, 3.1, 9.3, 27.2, or 80.0μM of the compound or DI water. […] Zebrafish were exposed to 1.7, 3.1, 5.5, 9.8, 17.6, 31.4, 56.0, or 100.0μM of PFBS, PFHxS, PFHpS, or PFOS or 0.4% DMSO. Subsequently, zebrafish were exposed to 1.7, 3.1, 5.5, 9.8, 17.6, 31.4, 56.0, or 100.0μM PFPeS, or 0.4% DMSO. Chlorpyrifos was used as positive control for malformations ( 8.0μM ) and lethality ( 80.0μM ) ([Padilla et al. 2012]; [Tal et al. 2017]). To conduct DevTox assay assessments, at 6 dpf, two independent observers evaluated zebrafish larvae for survival, hatching, swim bladder inflation, and malformations, including curved body axis, shortened trunk, pericardial edema, yolk sac edema, necrotic yolk sac, pectoral fin abnormalities and head/jaw abnormalities. Directly after assessments, data were reviewed and, in the case of discrepancies, consensus calls were reached. Toxicity values were assigned to descriptive data (i.e., normal=0 , abnormal=20 , severely abnormal=50 , and dead=100 ), modified from a previously described approach ([Padilla et al. 2012]). Briefly, animals with a single malformation were scored as abnormal, whereas animals with ≥2 malformations were scored as severely abnormal.
For the DevTox assay, a Kruskal-Wallace nonparametric one-way analysis of variance (ANOVA) with a Dunn’s multiple comparison test was used to detect differences between exposure groups (* p<0.05 , ** p<0.0001 ) and LOEC values were determined. If a test for linear trend was significant ( p<0.05 ), with developmental toxicity observed at the highest concentration tested, nonlinear regression was performed with a Hill slope curve fitting for half maximal effective concentration ( EC50 ) value determinations.

[1] = Study 1, 0.04–80.0 μM daily 0–5 dpf, 0.4% DMSO
[2] = Danio rerio, Study 1, 0.04–80.0 μM daily 0–5 dpf, 0.4% DMSO
[3] = Danio rerio, Study 3, 1.7–100.0 μM daily 0–5 dpf, 0.4% DMSO

| SMILES | Developmental toxicity outcome [1] | DevTox assay phenotype | EC50 [2] | EC50 [3] | EC50 [1] | EC50 (Study 3, 1.7–100.0 μM daily 0–5 dpf, 0.4% DMSO) | Developmental toxicity outcome (Study 2, 0.04–80.0 μM in DI water daily 0–5 dpf) |
| --- | --- | --- | --- | --- | --- | --- | --- |
| O=C(O)C(F)(F)C(F)(F)C(F)(F)C(F)(F)C(F)(F)C(F)(F)C(F)(F)F [PFOA, Perfluoro-n-octanoic acid] | did not cause concentration-dependent effects on survival or development; also recorded: negative | Negative | – | – | – | – | – |
| O=C(O)C(F)(F)C(F)(F)C(F)(F)C(F)(F)C(F)(F)F [PFHxA, Perfluorohexanoic acid] | did not cause concentration-dependent effects on survival or development; also recorded: no observed developmental toxicity identified at the highest concentration tested | Negative | – | – | – | – | – |
| O=C(O)C(F)(F)C(F)OC(F)(F)C(F)(F)C(F)(F)OC(F)(F)F (centres unmarked) [ADONA, 4,8-Dioxa-3H-perfluorononanoate] | did not cause concentration-dependent effects on survival or development; also recorded: failed to provoke developmental toxicity or developmental neurotoxicity; also recorded: negative | Negative^a | – | – | – | – | – |
| O=S(=O)(O)C(F)(F)C(F)(F)C(F)(F)C(F)(F)C(F)(F)C(F)(F)C(F)(F)C(F)(F)F [PFOS, Perfluorooctanesulfonic acid] | failed swim bladder inflation and ventroflexion of the tail | Positive | 7.5 µM | 28.2 µM | 7.54 µM | 28.2 µM | – |
| O=S(=O)(O)C(F)(F)C(F)(F)OC(F)(C(F)(F)F)C(F)(F)OC(F)=C(F)F (centres unmarked) [PFESA1, Perfluoro-3,6-dioxa-4-methyl-7-octene-1-sulfonic acid] | did not cause concentration-dependent effects on survival or development; also recorded: failed to provoke developmental toxicity or developmental neurotoxicity; also recorded: negative | Negative^a | – | – | – | – | – |
| O=C(O)C(F)(OC(F)(F)C(F)(F)C(F)(F)F)C(F)(F)F (centres unmarked) [GenX Free Acid, Perfluoro-2-propoxypropanoic acid] | – | Negative^a | – | – | – | – | negative; also recorded: failed to provoke developmental toxicity or developmental neurotoxicity |
| O=S(=O)(O)C(F)(F)C(F)(F)C(F)(F)C(F)(F)C(F)(F)C(F)(F)F [PFHxS, Perfluorohexanesulfonic acid] | same morphological phenotypes as PFOS | Positive | 92.7 µM | 228 µM | – | – | – |
